From article PMC9426601 (mBio, 2022)
Read-outs that look alike come from different tables or passages of the source.

Key:
A(H3N2)-PA/I38T [1] = format: cell-based, influenza A(H3N2) virus
A(H3N2) 100% PA/I38T = system: A(H3N2) 100% PA/I38T; design: species or system ferrets (Mustela putorius furo); AUC (area under the curve of nasal wash viral titer): unit not given beside the values; conditions: in vivo
A(H3N2)-PA/I38T [2] = format: cell-based, influenza A(H3N2) virus; remark: listed apart in the source
[3] = system: A(H3N2) 80% WT: 20% PA/I38T; design: species or system ferrets (Mustela putorius furo); AUC (area under the curve of nasal wash viral titer): unit not given beside the values; conditions: in vivo
A(H1N1pdm09)-PA/E23K [4] = format: cell-based, influenza A(H1N1pdm09) virus
[5] = system: A(H1N1pdm09) 80% WT: 20% PA/E23K; design: species or system ferrets (Mustela putorius furo); AUC (area under the curve of nasal wash viral titer): unit not given beside the values; conditions: in vivo
[6] = system: A(H1N1pdm09) 100% PA/E23K; design: species or system ferrets (Mustela putorius furo); AUC (area under the curve of nasal wash viral titer): unit not given beside the values; conditions: in vivo
A(H1N1pdm09)-PA/E23K [7] = format: cell-based, influenza A(H1N1pdm09) virus; remark: listed apart in the source
[8] = molecular target: NA activity of A(H3N2)-PA/I38T (Influenza A virus, UniProt P06818); format: biochemical
[9] = molecular target: NA activity of A(H1N1pdm09)-PA/E23K (Influenza A virus, UniProt C7FH46); format: biochemical; conditions: read-out: IC50 (nM), neuraminidase inhibitor
[10] = read-out: Baloxavir EC50 (nM) YRA
[11] = read-out: Baloxavir EC50 (nM) FRA
[12] = read-out: Oseltamivir IC50 (nM) YRA

O=C1c2c(O)c(=O)ccn2N([C@@H]2c3ccccc3SCc3c2ccc(F)c3F)[C@@H]2COCCN12 [Baloxavir, baloxavir acid]
fold increase in EC50 compared to the corresponding WT, YRA (A(H3N2)-PA/I38T [1]): 100 fold
EC50 (A(H3N2)-PA/I38T [1]; [10]): 40.1 ± 15.6 nM
AUC (area under the curve of nasal wash viral titer) (A(H3N2) 100% PA/I38T): 23.4 ± 1.4
Duration of viral shedding (A(H3N2) 100% PA/I38T): 5.7 ± 0.5 days
reduction in AUC relative to placebo (A(H3N2) 100% PA/I38T): 10%
reduction in viral shedding relative to placebo (A(H3N2) 100% PA/I38T): 0.6 days
fold higher EC50 compared to the corresponding pretreatment virus, FRA (A(H3N2)-PA/I38T [2]): 77 fold
EC50 (A(H3N2)-PA/I38T [2]; [11]): 46 ± 6.9 nM
AUC (area under the curve of nasal wash viral titer) [3]: 18.6 ± 1.4
Duration of viral shedding [3]: 4.7 ± 0.5 days
fold higher EC50 compared to the corresponding pretreatment virus, FRA (A(H1N1pdm09)-PA/E23K [4]): 17 fold
EC50 (A(H1N1pdm09)-PA/E23K [4]; [11]): 20.8 ± 10.2 nM
AUC (area under the curve of nasal wash viral titer) [5]: 24.7 ± 2.4
Duration of viral shedding [5]: 5.3 ± 0.5 days
reduction in AUC relative to placebo [5]: 6%
AUC (area under the curve of nasal wash viral titer) [6]: 28.6 ± 0.8
Duration of viral shedding [6]: 6.3 ± 0.5 days
rapid reduction in viral load in the first 24 h following treatment [6]: not observed
reduction in AUC relative to placebo [6]: no significant difference
fold increase in EC50 compared to the corresponding WT, YRA (A(H1N1pdm09)-PA/E23K [7]): 9 fold
EC50 (A(H1N1pdm09)-PA/E23K [7]; [10]): 2.6 ± 0.07 nM

CCOC(=O)C1=C[C@@H](OC(CC)CC)[C@H](NC(C)=O)[C@@H](N)C1 [Oseltamivir, oseltamivir]
IC50 ([8]; read-out: Oseltamivir IC50 (nM) NIA): 0.15 ± 0.11 nM
AUC (area under the curve of nasal wash viral titer) [3]: 19.3 ± 1.8
AUC (area under the curve of nasal wash viral titer) [5]: 26.9 ± 1.7
AUC greater than placebo [5]: 7%
AUC (area under the curve of nasal wash viral titer) [6]: 26.2 ± 1.3

CCC(CC)[C@H](NC(C)=O)[C@@H]1[C@H](O)[C@@H](C(=O)O)C[C@H]1N=C(N)N [Peramivir]
IC50 [9]: 0.17 ± 0.01 nM
IC50 ([8]; read-out: IC50 (nM), neuraminidase inhibitor): 0.12 ± 0.1 nM
